# Data from patent US11400058B2, “Intravenous formulations of coenzyme Q10 (CoQ10) and methods of use thereof” (Berg LLC, priority 2010, dated 2022).
# Marks after values point to notes of the source that are not given here.
# What was measured:
# MCF-7 = assay: Effect on Bcl-2 family, p53 and caspases in breast cancer cells; type: cell-based; settings: MCF-7, 50 and 100 μM
# Procedure: (§1) Effect of CoQ10 on Breast Cancer: In another in vitro study, the effect of CoQ10 (50 and 100 μM) on various members of the Bcl-2 family (bcl-2, bcl-xl, bid, bad, bak, mcl-1, bim, and bax), p53, and caspases 4, 8, 12 in two breast cancer cell lines, MCF-7 and Sk-BR3, was evaluated. The Bcl-2 protein family has been implicated as the major contributing factor to conferral of resistance to cancer therapy.
# Sk-BR3 = assay: as above; type: cell-based; settings: Sk-BR3, 50 and 100 μM
# Procedure: as §1
# [1] = 4-week repeat-dose study in dogs with 2-week recovery (Study 20000334); settings: for Died or Sacrificed Moribund: animals of 5;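 as to all read-outs here: endpoints monitored covered cageside and clinical observations, body weight, gross pathology, clinical pathology, histopathology and organ weights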
# Procedure: An additional two dogs/sex were included in each group and maintained for a 2-week recovery after treatment. A single test article concentration of 40 mg/mL was provided for use on the study. […] Parameters evaluated included cageside observations, clinical observations, body weight, food consumption, ophthalmoscopy, electrocardiography, clinical pathology, gross pathology, organ weights, and histopathology.
# [2] = 31.25 mg/kg F, end of dosing, animals of 3
# [3] = 31.25 mg/kg F, end of recovery, animals of 2
# [4] = 31.25 mg/kg M, end of dosing, animals of 3
# [5] = 31.25 mg/kg M, end of recovery, animals of 2
# [6] = 62.5 mg/kg F, end of dosing, animals of 3
# [7] = 62.5 mg/kg F, end of recovery, animals of 2
# [8] = 62.5 mg/kg M, end of dosing, animals of 3
# [9] = 62.5 mg/kg M, end of recovery, animals of 2
# [10] = 125 mg/kg F, end of dosing, animals of 3
# [11] = 125 mg/kg F, end of recovery, animals of 2
# [12] = 125 mg/kg M, end of dosing, animals of 3
# [13] = 125 mg/kg M, end of recovery, animals of 2
smiles,measurement,setting,value
"COC1=C(OC)C(=O)C(C/C=C(\C)CC/C=C(\C)CC/C=C(\C)CC/C=C(\C)CC/C=C(\C)CC/C=C(\C)CC/C=C(\C)CC/C=C(\C)CC/C=C(\C)CCC=C(C)C)=C(C)C1=O [CoQ10, Coenzyme Q10]","apoptosis (activation of caspase 3, 6 and 9)",MCF-7,increased apoptosis
same,"levels of the anti-apoptotic members (bcl-xl, mcl-1, bcl-2)",MCF-7,significantly decreased
same,"protein expression of pro-apoptotic members and BH3 subfamily members (bid, bad, bax, bim, bak)",MCF-7,upregulated
same,"apoptosis (activation of caspase 3, 6 and 9)",Sk-BR3,increased apoptosis
same,"levels of the anti-apoptotic members (bcl-xl, mcl-1, bcl-2)",Sk-BR3,significantly decreased
same,"protein expression of pro-apoptotic members and BH3 subfamily members (bid, bad, bax, bim, bak)",Sk-BR3,upregulated
same,Died or Sacrificed Moribund,[1]; 31.25 mg/kg F,0
same,"Body Weight, percent difference from controls","[1]; 31.25 mg/kg F, end of dosing",+4.7%
same,Reticulocytes,"[1]; 31.25 mg/kg F, end of dosing",3.67e+10 L⁻¹
same,Gross Pathology: Pale Liver,[1]; [2],0
same,Liver Glycogen Accum.,[1]; [2],2
same,"Liver Glycogen Accum., Mild",[1]; [2],0
same,"Liver Glycogen Accum., Minimal",[1]; [2],2
same,"Body Weight, percent difference from controls","[1]; 31.25 mg/kg F, end of recovery",+10.9%
same,Reticulocytes,"[1]; 31.25 mg/kg F, end of recovery",63.4 109/L
same,Gross Pathology: Pale Liver,[1]; [3],0
same,Liver Glycogen Accum.,[1]; [3],0
same,"Liver Glycogen Accum., Mild",[1]; [3],0
same,"Liver Glycogen Accum., Moderate",[1]; [3],0
same,Died or Sacrificed Moribund,[1]; 31.25 mg/kg M,0
same,"Body Weight, percent difference from controls","[1]; 31.25 mg/kg M, end of dosing",+3.3%
same,Reticulocytes,"[1]; 31.25 mg/kg M, end of dosing",4.87e+10 L⁻¹
same,Gross Pathology: Pale Liver,[1]; [4],0
same,Liver Glycogen Accum.,[1]; [4],3
same,"Liver Glycogen Accum., Mild",[1]; [4],1
same,"Liver Glycogen Accum., Minimal",[1]; [4],2
same,"Body Weight, percent difference from controls","[1]; 31.25 mg/kg M, end of recovery",+4.7%
same,Reticulocytes,"[1]; 31.25 mg/kg M, end of recovery",71.6 109/L
same,Gross Pathology: Pale Liver,[1]; [5],0
same,Liver Glycogen Accum.,[1]; [5],0
same,"Liver Glycogen Accum., Mild",[1]; [5],0
same,"Liver Glycogen Accum., Moderate",[1]; [5],0
same,Died or Sacrificed Moribund,[1]; 62.5 mg/kg F,0
same,"Body Weight, percent difference from controls","[1]; 62.5 mg/kg F, end of dosing",+4.2%
same,Reticulocytes,"[1]; 62.5 mg/kg F, end of dosing",5.2e+10 L⁻¹
same,Gross Pathology: Pale Liver,[1]; [6],3
same,Liver Glycogen Accum.,[1]; [6],3
same,"Liver Glycogen Accum., Mild",[1]; [6],1
same,"Liver Glycogen Accum., Minimal",[1]; [6],2
same,"Body Weight, percent difference from controls","[1]; 62.5 mg/kg F, end of recovery",+5.1%
same,Reticulocytes,"[1]; 62.5 mg/kg F, end of recovery",50.8 109/L
same,Gross Pathology: Pale Liver,[1]; [7],1
same,Liver Glycogen Accum.,[1]; [7],1
same,"Liver Glycogen Accum., Mild",[1]; [7],0
same,"Liver Glycogen Accum., Moderate",[1]; [7],1
same,Died or Sacrificed Moribund,[1]; 62.5 mg/kg M,0
same,"Body Weight, percent difference from controls","[1]; 62.5 mg/kg M, end of dosing",0.0%
same,Reticulocytes,"[1]; 62.5 mg/kg M, end of dosing",6.8e+10 L⁻¹
same,Gross Pathology: Pale Liver,[1]; [8],3
same,Liver Glycogen Accum.,[1]; [8],3
same,"Liver Glycogen Accum., Mild",[1]; [8],3
same,"Liver Glycogen Accum., Minimal",[1]; [8],0
same,"Body Weight, percent difference from controls","[1]; 62.5 mg/kg M, end of recovery",−1.4%
same,Reticulocytes,"[1]; 62.5 mg/kg M, end of recovery",85.4 109/L
same,Gross Pathology: Pale Liver,[1]; [9],1
same,Liver Glycogen Accum.,[1]; [9],1
same,"Liver Glycogen Accum., Mild",[1]; [9],1
same,"Liver Glycogen Accum., Moderate",[1]; [9],0
same,Died or Sacrificed Moribund,"[1]; 125 mg/kg F, moribund sacrificed on Day 36 (Week 2 of recovery)",1^c
same,"Body Weight, percent difference from controls","[1]; 125 mg/kg F, end of dosing",−1.0%
same,Reticulocytes,"[1]; 125 mg/kg F, end of dosing",160.69 109/L
same,Gross Pathology: Pale Liver,[1]; [10],3
same,Liver Glycogen Accum.,[1]; [10],3
same,"Liver Glycogen Accum., Mild",[1]; [10],1
same,"Liver Glycogen Accum., Minimal",[1]; [10],2
same,"Body Weight, percent difference from controls","[1]; 125 mg/kg F, end of recovery",−1.0%
same,Reticulocytes,"[1]; 125 mg/kg F, end of recovery",53.6 109/L
same,Gross Pathology: Pale Liver,[1]; [11],2
same,Liver Glycogen Accum.,[1]; [11],2
same,"Liver Glycogen Accum., Mild",[1]; [11],1
same,"Liver Glycogen Accum., Moderate",[1]; [11],1
same,Died or Sacrificed Moribund,[1]; 125 mg/kg M,0
same,"Body Weight, percent difference from controls","[1]; 125 mg/kg M, end of dosing",+1.2%
same,Reticulocytes,"[1]; 125 mg/kg M, end of dosing",190.6 109/L
same,Gross Pathology: Pale Liver,[1]; [12],3
same,Liver Glycogen Accum.,[1]; [12],3
same,"Liver Glycogen Accum., Mild",[1]; [12],3
same,"Liver Glycogen Accum., Minimal",[1]; [12],0
same,"Body Weight, percent difference from controls","[1]; 125 mg/kg M, end of recovery",+7.9%
same,Reticulocytes,"[1]; 125 mg/kg M, end of recovery",131.1 109/L
same,Gross Pathology: Pale Liver,[1]; [13],2
same,Liver Glycogen Accum.,[1]; [13],2
same,"Liver Glycogen Accum., Mild",[1]; [13],1
same,"Liver Glycogen Accum., Moderate",[1]; [13],1
